Source: patent publication US20160317561A1, “USE OF D-RIBOSE FOR FATIGUED SUBJECTS” (Bioenergy Life Science, Inc., priority 2008, published 2016)

Tests used:
Type in all cases: in vivo, human
[1] = Sub-maximal cardiopulmonary exercise (CPX) treadmill testing in fatigued aging subjects; conditions: for Hr to METS ratio at AT, mean change / Net Energy Expenditure at AT, mean change / O2 Uptake Slope, mean change / VE Slope, mean change / VO2 at AT, mean change: 3.0 g D-ribose bid orally
Protocol: The pilot study was performed enrolling 20 aging subjects, greater than 45 years of age, who were self-perceived as fatigued and tired as their customary daily state for at least one month, with no strenuous exercise or physical labor to account for the fatigue. No subjects had documented histories of heart/lung or metabolism/endocrine disease, as set out more fully below in the inclusion criteria. The causes of fatigue in aging subjects is unknown. It can be hypothesized that the causes are mental, since lowered cognition and feeling of wellbeing is also common in aging persons. The aforementioned studies of unhealthy persons or persons exercising strenuously found a dose of five to eight grams of D-ribose, taken two to four times per day was recommended to raise or maintain ATP levels. Lower amounts such as in this study, were not found adequate for those subjects. For the healthy, but sedentary and aging subjects for this study, it was expected that they were already at an optimum ATP level. Two doses of oral D-ribose at 1.5 grams or 3.0 grams bid were selected to test the hypothesis that raising ATP levels with D-ribose could have some benefit in improving fatigue. Each subject consumed the oral D-ribose for two weeks, dissolved in a small amount of water. Study assessments were done at baseline, and at one and two weeks during the trial. The lower dose study was continued an additional two weeks. The subjective and objective assessment parameters included: sub-maximal exercise performance, resting and sub-maximal energy expenditure, the SF-36 Quality of Life Assessment and a subjective questionnaire for evaluating fatigue.
Energy expenditure was calculated both at rest (BMR) and also at the anaerobic threshold (AT) using standard formulae incorporated into CPX-based software. Net energy expenditure was determined by subtracting resting values from those calculated at the subject's AT. In addition, the completed activity log was used to determine potential changes in cumulative (daily and weekly) energy expenditure throughout the first and second weeks while on D-ribose. Further, work efficiency was determined by calculating the reciprocal of aerobic power or the VO2 to WR ratio, as computed at the anaerobic threshold.
The formula for calculation of energy expenditure at the anaerobic threshold was based, in part, on the actual measured resting energy expenditure (RER) and VO2 at that level of exercise, knowing that a subject can sustain a steady state at the initial phase of the AT, which represents a particular phase of exercise whereby energy metabolism due to an increase in oxygen consumption resulting in a reduction in tissue oxygen perfusion shifts to an anaerobic instead of an oxidative phosphorylation. The AT interval varies from person to person depending on physical condition or training. Individuals who are not trained and relatively deconditioned have a low AT, as compared to elite endurance athletes having a high AT. At the AT, fuel mix for skeletal muscle metabolism is somewhat balanced. This point occurs in the range between 40% to 60% of the maximum VO2 attained. For example, assuming that equal amounts of fats and carbohydrates are oxidized at an RER of 0.85 just prior to AT onset, energy expenditure can be calculated using the formula VO2(L/min)×4.862 kcal/min for each liter of oxygen consumed. Likewise, if an individual was at an RER of 0.89 under steady state conditions, their absolute VO2 in L/min would be multiplied by a factor of 4.911. Net energy expenditure would be calculated subtracting the subject's resting energy expenditure (REE) or BMR. METS or net metabolic equivalents was also used to express the subject's activity level at their AT.
For this study, a ramping incremental treadmill exercise protocol was followed. […] The treadmill exercise was increased from 0 mph to 3.0 mph and the elevation increased from 0 to 12%, over the test time of six minutes. […]

[2] = Fatigue questionnaire / Visual Analog Scale (VAS) for fatigue in fatigued aging subjects; conditions: for Fatigue questionnaire: lower dose (1.5 g bid)
Protocol: Subjects were monitored at baseline and during the two week treatment period for their perceived fatigue activity levels. Subjects were asked to rate on a ten point scale (1=near dead to 10=excellent) the following questions: How is your energy? (1=no energy, 10=excellent); How do you sleep? (1=no sleep, 10=8 hours without waking); How is your mental clarity? (1=“brain fog”, 10=good clarity); How bad is your pain?; How is your overall sense of well being? At weeks one and two, subjects were also asked to describe their overall rating of symptoms of fatigue as compared to their symptoms at baseline. The five point scale was; much better, somewhat better; no change; somewhat worse and much worse. The investigators selected end-points of some assessments to determine whether the subjects remained the same or improved at one and two weeks. The results were represented in a Visual Analog Scale (VAS) for fatigue. Nine subjects completed the VAS forms of subjective estimate of tiredness (Appendix B) on a scale of 1 (completely disagree) to 7 (completely agree).

[3] = Side effects of D-ribose administration in the study subjects; conditions: higher (3.0 g bid) or lower (1.5 g bid) doses
Source text: D-ribose ingestion is known to have the potential to cause gastrointestinal distress, including flatulence and diarrhea, and also can lower blood glucose.

[4] = SF-36 Quality of Life Questionnaire in fatigued aging subjects
Source text: The SF-36 Quality of Life Questionnaire was also used. Subjects were asked to fill out a questionnaire on the normal activities that they participated in. An example of the SF-36 Quality of Life Questionnaire is presented in Appendix A. These activities included household chores, walking, yard work and whether the subject routinely climbed stairs. Additionally, subjects were asked how many days in the past week they felt good; missed work or routine chores because of fatigue; how tired they felt and their state on awakening in the morning. In order to understand what the self-perception of fatigue (described as fatigue, tiredness or loss of vitality) indicates, it is helpful to look at the questions asked in SF-36 Quality of Life questionnaire (Appendix A). The SF-36 questionnaire is applied particularly to evaluating physician-prescribed therapies, but the gender-neutral, generic, coherent and easily administered questions are useful to evaluate any discrete cohort of subjects in the categories desired. […] The first three categories as listed are directed to the subject's self-perceived status. The remaining categories are directed to the extent that status (whatever that status may be), affects the subject's functioning roles in several categories.

In the case of `O=C[C@H](O)[C@H](O)[C@H](O)CO` [D-ribose], the “Hr to METS ratio at AT, mean change” value ([1]; Week 1 vs baseline) is reported as −3.00 +/− 2.83, the “Net Energy Expenditure at AT, mean change” value ([1]; Week 1 vs baseline) is reported as 9.32 +/− 7.67 and the “O2 Uptake Slope, mean change” value ([1]; Week 1 vs baseline) is reported as 0.17 +/− 0.19. For the same compound, the “VE Slope, mean change” value ([1]; Week 1 vs baseline) was −2.26 +/− 1.69, the “VO2 at AT, mean change” value ([1]; Week 1 vs baseline) was 1.53 +/− 0.90 and the “Hr to METS ratio at AT, mean change” value ([1]; Week 2 vs baseline) was −3.67 +/− 3.27. For the same compound, the “Net Energy Expenditure at AT, mean change” value ([1]; Week 2 vs baseline) was 16.23 +/− 6.13, the “O2 Uptake Slope, mean change” value ([1]; Week 2 vs baseline) was 0.24 +/− 0.15 and the “VE Slope, mean change” value ([1]; Week 2 vs baseline) was −2.44 +/− 2.24. For the same compound, the “VO2 at AT, mean change” value ([1]; Week 2 vs baseline) was 2.13 +/− 0.78, the “Increase in resting energy expenditure at the AT onset” value ([1]; 3.0 g bid orally, end of two weeks) was 8.2% and the “Rise in net energy expenditure at the AT onset” value ([1]; 3.0 g bid orally, end of two weeks, p<0.0005) was 32%. For the same compound, the “Increase in VO2 at the AT onset” value ([1]; 3.0 g bid orally, end of two weeks, p<0.001) was 18%, the “Increase in heart rate at the AT onset” value ([1]; 3.0 g bid orally, end of two weeks, p=0.012) was 9.2% and the “Decrease in heart rate to METS ratio” value ([1]; 3.0 g bid orally, two weeks) was 11.7%. For the same compound, the “Decrease in oxygen pulse indexed to inspiratory drive” value ([1]; 3.0 g bid orally, two weeks) was 8.9%, the “Decrease in ventilatory efficiency slope” value ([1]; 3.0 g bid orally, two weeks) was 8.5% and the “Increase in change in oxygen pulse times change in expired CO2 at AT” value ([1]; 3.0 g bid orally, two weeks) was 60.8%. For the same compound, the “Average calorie burned from fat substrate at the AT” value ([1]; 3.0 g bid orally, two weeks, most subjects) was “did not change significantly”, the “CPX parameters (objective measures)” value ([1]; lower dose (1.5 g bid), two weeks to four weeks) was “positive trend” and the Fatigue questionnaire ([2]; continued for an additional two weeks (four weeks), FIG. 7) was “Continued improvement”. The Fatigue questionnaire ([2]; two weeks) was “slight reduction in fatigue”, the “Decrease in self-perceived levels of fatigue (average)” value ([2]; six grams of D-ribose per day (3.0 g bid), two weeks) was 50% and the “Side effects of D-ribose administration” value [3] was “No subjects in this study, at either the higher or the lower doses, experienced any side effects”. For the same compound, the “Response to the SF-36 Questionnaire” value ([4]; lower dose (1.5 g bid), four weeks) was “improvement in symptoms of general health, vitality and mental outlook”, the “SF-36 Bodily pain (interference with activities)” value ([4]; results at two weeks) was “significant improvement” and the “SF-36 Emotional function role” value ([4]; results at two weeks) was “significant improvement”. For the same compound, the “SF-36 Social function role” value ([4]; results at two weeks) was “significant improvement”, the “SF-36 Vitality” value ([4]; results at two weeks, initially low at 40th percentile) was “significant improvement” and the “SF-36 Physical competence” value ([4]; results at two weeks, initially near normal) was “slight improvement”. For the same compound, the “SF-36 General health” value ([4]; results at two weeks, initially normal) was “slight improvement”, the “SF-36 Role physical function” value ([4]; results at two weeks, initially slightly subnormal) was “significant improvement” and the “Social functionality, emotional wellbeing, mental health and mental competence (questionnaire)” value ([4]; two weeks, mental categories based on additional questions not in SF-36) was “increases”.
